The values that follow come from patent US11051515B2, “3-acyl-benzamides and their use as herbicides” (Bayer Aktiengesellschaft, priority 2017, dated 2021).

The test system of assay [1] is MATIN. Briefly: Post-emergence action against MATIN. It counts as in vivo, Matricaria inodora. To be noted: post-emergence, dosage 80 g/ha, visual assessment about 3 weeks after treatment vs untreated controls; for pest or weed control at 80 g/ha: Tripleurospermum inodorum, 504 h, read-out: Post-emergence action against MATIN (herbicidal action in percent). In outline: (§1)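 Weeds grown in sandy loam in greenhouse, treated at one-leaf stage (2–3 weeks after sowing) with WP or EC formulations sprayed as aqueous suspension/emulsion at 600 to […] water with 0.2% wetting agent. Visual rating after about 3 weeks versus untreated controls, as % herbicidal action (100% = plants dead, 0% = like control).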

In assay [2] the test system is MATIN. Briefly: Pre-emergence action against MATIN. The settings on record: Dosage 320 g/ha, pre-emergence; for pest or weed control at 320 g/ha: Tripleurospermum inodorum, 504 h. The format is in vivo, Matricaria inodora. In short, it runs like this: (§2)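 Seeds sown in sandy loam in wood-fiber pots and covered with soil. Greenhouse growth; visual damage scored after 3 weeks versus untreated controls (100% = dead, 0% = like control).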

In a further assay the test system is PHBPU. Kind of assay: Post-emergence action against PHBPU. It counts as in vivo, Pharbitis purpurea. The settings on record: post-emergence, dosage 80 g/ha; for pest or weed control at 80 g/ha: Ipomoea purpurea, 504 h. In outline:
as §1

Assay [3] deals with VERPE. Kind of assay: Post-emergence action against VERPE. The format is in vivo, Veronica persica. To be noted: dosage 80 g/ha; for pest or weed control at 80 g/ha: Veronica persica, 504 h. In short, it runs like this:
as §1

For assay [4], the system named is STEME. Briefly: Post-emergence action against STEME. It counts as in vivo, Stellaria media. To be noted: post-emergence, dosage 80 g/ha; for pest or weed control at 80 g/ha: Stellaria media, 504 h. In short, it runs like this: as §1
The next assay has as its system CYPES. Kind of assay: Post-emergence action against CYPES. It counts as in vivo, Cyperus esculentus. The settings on record: post-emergence, dosage 80 g/ha, visual assessment about 3 weeks after treatment vs untreated controls; for pest or weed control at 80 g/ha: Cyperus esculentus, 504 h, read-out: Post-emergence action against CYPES (herbicidal action in percent). The method, then: (§3) Seeds of monocotyledonous and dicotyledonous weed and crop plants are laid out in sandy loam soil in wood-fiber pots, covered with soil and cultivated in a greenhouse under good growth conditions. 2 to 3 weeks after sowing, the test plants are treated at the one-leaf stage. The compounds of the invention, formulated in the form of wettable powders (WP) or as emulsion concentrates (EC), are then sprayed onto the green parts of the plants in the form of an aqueous suspension or emulsion at a water application rate equating to […], with addition of 0.2% wetting agent. After the test plants have been left to stand in the greenhouse under optimal growth conditions for about 3 weeks, the action of the preparations is assessed visually in comparison to untreated controls (herbicidal action in percent (%): 100% activity=the plants have died, 0% activity=like control plants). […] At the same time, inventive compounds leave Gramineae crops such as barley, wheat, rye, millet/Sorghum, corn or rice virtually undamaged when applied post-emergence, even at high active ingredient dosages. In addition, some substances are also harmless to dicotyledonous crops such as soya, cotton, oilseed rape, sugar beet or potatoes. Some of the compounds according to the invention have high selectivity and are therefore suitable for controlling unwanted vegetation in agricultural crops by the post-emergence method. The data of Tables B18 to B34 below illustrate, in an exemplary manner, the […] herbicidal action of the compounds according to the invention, the herbicidal activity being stated in percent.

Assay [5] deals with VIOTR. Kind of assay: Post-emergence action against VIOTR. The settings on record: post-emergence, dosage 80 g/ha; for pest or weed control at 80 g/ha: Viola tricolor, 504 h. The format is in vivo, Viola tricolor. In outline:
as §1

Assay [6] has as its system AMARE. Briefly: Post-emergence action against AMARE. The format is in vivo, Amaranthus retroflexus. The settings on record: post-emergence, dosage 80 g/ha, visual assessment about 3 weeks after treatment vs untreated controls; for pest or weed control at 80 g/ha: Amaranthus retroflexus, 504 h, read-out: Post-emergence action against AMARE (herbicidal action in percent). In short, it runs like this:
as §1

Assay [7] has as its system VERPE. Kind of assay: Pre-emergence action against VERPE. The format is in vivo, Veronica persica. To be noted: Dosage 320 g/ha, pre-emergence; for pest or weed control at 320 g/ha: Veronica persica, 504 h. In short, it runs like this: as §2
In assay [8] the test system is STEME. Kind of assay: Pre-emergence action against STEME. To be noted: Dosage 320 g/ha, pre-emergence; for pest or weed control at 320 g/ha: Stellaria media, 504 h. The format is in vivo, Stellaria media. In outline: as §2
Assay [9] concerns AMARE. Kind of assay: Pre-emergence action against AMARE. It counts as in vivo, Amaranthus retroflexus. To be noted: pre-emergence, dosage 320 g/ha, scored visually after 3 weeks vs untreated controls; for pest or weed control at 320 g/ha: Amaranthus retroflexus, 504 h, read-out: Pre-emergence action against AMARE (herbicidal activity). In short, it runs like this: as §2
Assay [10] concerns ECHCG. Kind of assay: Post-emergence action against ECHCG. It counts as in vivo, Echinochloa crus-galli. The settings on record: post-emergence, dosage 80 g/ha, visual assessment about 3 weeks after treatment vs untreated controls. In short, it runs like this:
as §1

Assay [11] has as its system VIOTR. Briefly: Pre-emergence action against VIOTR. The format is in vivo, Viola tricolor. The settings on record: Dosage 320 g/ha, pre-emergence. In short, it runs like this: as §2
For assay [12], the system named is ABUTH. Kind of assay: Pre-emergence action against ABUTH. It counts as in vivo, Abutilon theophrasti. To be noted: pre-emergence, dosage 320 g/ha, scored visually after 3 weeks vs untreated controls. In outline:
as §2

Assay [13] concerns ECHCG. Kind of assay: Pre-emergence action against ECHCG. The format is in vivo, Echinochloa crus-galli. The settings on record: pre-emergence, dosage 320 g/ha, scored visually after 3 weeks vs untreated controls. In short, it runs like this: as §2
Assay [14] relates to ABUTH. Briefly: Post-emergence action against ABUTH. The format is in vivo, Abutilon theophrasti. The settings on record: post-emergence, dosage 80 g/ha, visual assessment about 3 weeks after treatment vs untreated controls. In short, it runs like this: as §1
A further assay deals with SETVI. Briefly: Post-emergence action against SETVI. The format is in vivo, Setaria viridis. The settings on record: Setaria viridis, 504 h; post-emergence, dosage 80 g/ha, visual assessment about 3 weeks after treatment vs untreated controls; read-out: Post-emergence action against SETVI (herbicidal action in percent). The protocol: as §3

`Cc1ccc(C(=O)Nc2nnnn2C)c(Cl)c1C(=O)C1CC1` [1-136]: the pest or weed control at 80 g/ha in the assay on MATIN [1] worked out at 90%; in the assay on PHBPU, 90%; in the assay with VERPE [3], 90%; in the assay with STEME [4] it was 100%; in the assay on CYPES, 80%; in the assay on VIOTR [5], 90%. For the same molecule, in the assay with AMARE [6], the pest or weed control at 80 g/ha worked out at 90%. Also, the pest or weed control at 320 g/ha in the assay with MATIN [2] was determined as 100%; with VERPE [7], 80%; in the assay on STEME [8], 100%; in the assay with AMARE [9], 80%.
Turning to `CCCn1nnnc1NC(=O)c1ccc(C)c(C(C)=O)c1Cl` [3-134], the “Post-emergence action against MATIN (herbicidal action in percent)” value in the assay on MATIN [1] is listed as 90%. In addition, in the assay on MATIN [2], the “Pre-emergence action against MATIN” value came out at 90%. Besides, the “Post-emergence action against PHBPU” value with PHBPU was 90. Also, the “Post-emergence action against ECHCG (herbicidal action in percent)” value in the assay with ECHCG [10] stood at 90%. For the same molecule, the “Post-emergence action against VERPE” value with VERPE [3] was 90. For the same molecule, the “Post-emergence action against STEME” value in the assay with STEME [4] is reported as 100. Besides, the “Pre-emergence action against VIOTR” value in the assay on VIOTR [11] is on record as 100%. Besides, the “Post-emergence action against CYPES (herbicidal action in percent)” value in the assay on CYPES is reported as 80%. Also, the “Post-emergence action against VIOTR” value in the assay with VIOTR [5] was 90. In the assay on AMARE [6], the “Post-emergence action against AMARE (herbicidal action in percent)” value came out at 90%. In addition, the “Pre-emergence action against VERPE” value with VERPE [7] was found to be 80%. In addition, the “Pre-emergence action against ABUTH (herbicidal activity)” value in the assay on ABUTH [12] came to 100%. Moreover, the “Pre-emergence action against ECHCG (herbicidal activity)” value with ECHCG [13] is given as 100%. Besides, the “Pre-emergence action against STEME” value in the assay with STEME [8] was 90%. Moreover, the “Post-emergence action against ABUTH (herbicidal action in percent)” value in the assay with ABUTH [14] amounted to 80%. Also, the “Pre-emergence action against AMARE (herbicidal activity)” value with AMARE [9] is given as 90%.
For the molecule `CC(=O)c1c(C)ccc(C(=O)Nc2nnnn2C)c1Cl` [1-134], the pest or weed control at 80 g/ha worked out at 100% in the assay on MATIN [1]; 90% with PHBPU; 90% in the assay with ECHCG [10] (Echinochloa crus-galli, 504 h, read-out: Post-emergence action against ECHCG (herbicidal action in percent)); 100% in the assay with VERPE [3]; 100% with STEME [4]; 90% in the assay with CYPES. Besides, the pest or weed control at 80 g/ha turned out to be 100% with VIOTR [5]; 90% with AMARE [6]; 80% with SETVI; 80% in the assay on ABUTH [14] (Abutilon theophrasti, 504 h, read-out: Post-emergence action against ABUTH (herbicidal action in percent)). Further, the pest or weed control at 320 g/ha in the assay with MATIN [2] was determined as 100%; in the assay with VERPE [7], 90%; with ABUTH [12] (Abutilon theophrasti, 504 h, read-out: Pre-emergence action against ABUTH (herbicidal activity)), 90%; in the assay on ECHCG [13] (Echinochloa crus-galli, 504 h, read-out: Pre-emergence action against ECHCG (herbicidal activity)), 90%; with STEME [8], 90%; in the assay with AMARE [9], 100%.
